# Reference: patent US20220193205A1, “METHODS OF TREATING CANCER” (Foghorn Therapeutics Inc., priority 2019, published 2022)
# System: ATRX null/ALT+ osteosarcoma cell line SAOS2
# Test: Cell viability by CellTiter-Glo after siRNA delivery
# Assay type: cell-based
# Conditions: compared to negative control siRNA, FIG. 3
# Description: Procedure: SAOS2 cell line was seeded in 100 μL of media in 96-well plates (Corning 3904) excluding edge wells at the following density of 10000 cells per well. SOAS2 cells were seeded the day prior to transduction. Custom Stealth siRNA and Negative Control siRNA were ordered from ThermoFisher. The procedure for siRNA delivery was conducted based on the manufacturer's recommendation. The SMARCAL1 targeting siRNA sequence is: […] (SEQ ID NO: 356).
# Cell viability was assayed using CellTiter-Glo (Promega G7572) at 100 μL per well. Luminescence was read using PerkinElmer EnVision 2105. Values were normalized to the average values from the negative control sgRNAs. Experiments were performed three times. Shown are the triplicate results of one representative experiment. Two tailed, type 3 Student's t-test was performed to determine statistical significance, which was conducted on Microsoft Excel (Microsoft).
sequence,measurement,value
"UUUCACAGAGAAAUGCUUAUGCAGG (siRNA; commercial Stealth siRNA, chemistry not given here, further chemistry not given here; listed as Homo sapiens) [siRNA targeting SMARCAL-1, Custom Stealth siRNA targeting SMARCAL1, ordered from ThermoFisher]",cell viability,decreased viability
